Data published in the METLIN SMRT retention time set (Domingo-Almenara et al. 2019).

assay: gradient 5% acetonitrile 3 min, to 50% in 2 min, to 85% in 15 min, held 3 min, 100 µL/min; conditions: column: Zorbax Extend-C18 2.1 x 50 mm; eluents: water / acetonitrile, 0.1% formic acid
How it was run: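 Pure standards were run in mixtures of ~100 molecules by HPLC coupled to a quadrupole time-of-flight mass spectrometer. The column was a Zorbax Extend-C18 (2.1 × 50 mm, 1.8 μm) at 100 μL/min, with water and acetonitrile each containing 0.1% formic acid, in positive and negative ionization mode. Dead and dwell volumes were 40 μL and 900 μL. Retention time was taken from computationally picked adduct peaks, each manually inspected, with data collected over 3 months.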

Structure (SMILES) | RP-LC retention time [s]
O=C(NC1CCCCCC1)C1CCCN(c2ccnc(-c3ccc(F)cc3)n2)C1 (centres undefined) | 730
CC1CCN(c2nn(CC(=O)NCCc3ccc(Cl)cc3)c(=O)c3ccccc23)CC1 | 1190
O=C(C1CCCO1)N1N=C(c2ccc(Br)cc2)CC1c1ccco1 (centres undefined) | 892
CCOC(=O)C1=C(CN2CCc3ccccc3C2)NC(=O)NC1c1cccc(OC)c1OC (centres undefined) | 660
Cc1noc(C)c1CCC(=O)N1CCN(Cc2csc(-c3ccccc3)n2)CC1 | 576
O=C(Nc1nc(CC(=O)N2CCN(c3ccccc3O)CC2)cs1)c1cnccn1 | 612
O=C1N(c2cccc(F)c2)c2ncccc2S(=O)(=O)N1Cc1cccc(F)c1 | 1030
COc1cccc(CNC2=NCCNC23CCN(S(=O)(=O)c2cc(C)c(C)cc2C)CC3)c1 | 836
O=S(=O)(c1ccc(F)cc1F)N1CCC(c2noc(-c3ccc(F)cc3)n2)CC1 | 1130
CC1Oc2ccc(S(=O)(=O)N3CCC(C(=O)N(C)C4CCCCC4)CC3)cc2NC1=O (centres undefined) | 858
O=C(NCc1ccc(F)cc1)C1CCN(S(=O)(=O)c2cc(C(=O)N3CCOCC3)cs2)CC1 | 739
Cc1ccc(S(=O)(=O)N(C)CC2CCOCC2)cc1F | 850
O=C(CN1C[C@H]2C[C@H](C1)[C@H]1CCCC(=O)N1C2)NCC1CC1 | 563
CC(C)(C)C(=O)Nc1nnc(SCc2nnc(-c3ccc4c(c3)OCO4)o2)s1 | 843
c1cc(-c2nc3c(c(N4CCSCC4)n2)CCC3)ccn1 | 675
COCCCNC(=O)c1ccc2c(c1)nc1n2CCN(C2CCCCC2)C1=O | 1240
O=C(c1ccccc1)N1CCCCC1c1nncn1CC1CC1 (centres undefined) | 592
O=C(c1ccccn1)N1CCC(Oc2cc(N3CCCCC3)ncn2)C1 (centres undefined) | 686
Cc1csc(-c2cc(S(=O)(=O)NC(C)C)cn2CC(=O)N2CCCCC2)n1 | 873

Structure (SMILES) | RP-LC retention time [s]
Cc1cc(S(=O)(=O)N2CCC(C(N)=O)CC2)ccc1F | 649
N#CC1C=Cc2c(ccc3ccccc23)N1C(=O)c1ccccc1 (centres undefined) | 1090
Cc1cc(C)cc(C(=O)N2CCN(c3cc(=O)n(C)c(=O)n3C)CC2)c1 | 691
COc1cccc(S(=O)(=O)N2CCC3(CC2)N(C2CCCC2)C(=O)CS3=O)c1 (centres undefined) | 780
N#Cc1ccc(-c2nc(-c3ccc4c(c3)ncn4CCN3CCCCC3)no2)cc1 | 632
CCCOc1nc2ccccc2nc1N1CCCC(C(=O)NCC2CCCO2)C1 (centres undefined) | 1010
CCCN1C(=O)c2c(C(=O)NCCc3ccccc3C)ncn2CC1(C)C(=O)NCCC(C)C (centres undefined) | 900
CCN(Cc1cnn(CC)c1)C(=O)C1CN(C(=O)c2ccccc2)CC12CCCCC2 (centres undefined) | 812
COc1ccc(-c2noc(-c3nc(C)no3)n2)c(OC)c1 | 888
CCOc1ccc(S(=O)(=O)N2CCC(C(=O)NCCCO)CC2)cc1C | 707
CCOC(=O)c1[nH]c(C)c(CCC(=O)N2CCC(C(=O)N3CCCCCC3)CC2)c1C | 774
CC(C)(C)N(CC(=O)N(Cc1ccco1)CC1CCCO1)C(=O)Cc1ccccc1 (centres undefined) | 907
Fc1ccc(-c2nc(-c3ccc(-n4cccn4)nc3)no2)cc1F | 1070
COc1ccc(OC)c(CNC(=O)COc2nc(C)nc3oc(C)c(C)c23)c1 | 866
O=C(c1n[nH]c(=O)c2ccccc12)N1C[C@H]2C[C@H](C1)[C@H]1CCCC(=O)N1C2 | 598
Cn1ncc(Br)c1C(=O)N1CCCC1c1ccc(F)cc1 (centres undefined) | 832
O=S(=O)(NCC1(O)CCOCC1)c1ccc2c(c1)CCCC2 | 688
O=C(Cn1nc(S(=O)(=O)c2ccc(Cl)cc2)ccc1=O)N1CCN(c2ccc(F)cc2)CC1 | 910
O=C(c1ccc(-n2cccn2)nc1)N1CCSCC1 | 714

Second part, the compound after the results:

RP-LC retention time [s] | Structure (SMILES)
1160 | Cc1ccc(S(=O)(=O)NC(c2nc(-c3ccc(-c4csc(C)n4)cc3)no2)C(C)C)cc1 (centres undefined)
987 | CCc1ccccc1NC(=O)N1CCCC1c1nc(-c2ccccc2)no1 (centres undefined)
1010 | CCC(=O)N1CCc2sc(S(=O)(=O)N3CCN(c4cccc(C)c4)CC3)cc2C1
990 | Cc1cc(C)n(-c2ccc(C(=O)NCc3ccc(Cl)cc3)cn2)n1
1320 | Cc1ccc(-c2nc(Nc3cccc(Cl)c3)sc2C)cc1
849 | Cc1cc2nn(CC(=O)Nc3cccc(C)c3C)c(=O)n2c(-c2ccc(F)cc2)n1
917 | CCOc1ccc(NC(=O)C2CCN(S(=O)(=O)c3cc(-c4noc(C)n4)cs3)CC2)cc1
588 | CCn1cnc2cc(-c3noc(CNC(=O)c4ccco4)n3)ccc21
1160 | COc1cccc(Cn2c(=O)c3sccc3n(Cc3nc(-c4cccc(C)c4)no3)c2=O)c1
610 | CCN1CCN(c2cc(C)c3cc(NC(=O)c4ccc(Br)cc4)ccc3n2)CC1
1100 | Cc1ccc(-c2ccc3nn(Cc4nc(-c5ccc(Br)cc5)no4)c(=O)n3n2)cc1
1170 | COc1ccc(-c2nnc(SCc3ccc(Br)cc3)o2)cc1
1080 | CC(C)Cc1cc(-c2nn3c(-c4cccc(Cl)c4)nnc3s2)n[nH]1
616 | Cc1ccc(-c2nc3cnccn3c2NCCC(=O)NC2CC2)cc1
796 | COc1ccc(NC(=O)Cn2c(C)cc(-c3nnc(C4CCC4)o3)c2C)cc1OC
704 | CS(=O)(=O)Nc1ccc(-c2noc(CNC(=O)c3ccccc3)n2)cc1
966 | Cc1ccc(-c2cc(NC(=O)Cc3ccsc3)on2)s1
868 | O=C(Cc1csc2nc(-c3ccccc3)cn12)Nc1ccc(Cl)cc1
719 | CCc1nnc2ccc(NC(=O)Nc3cccc(C)c3)cn12
811 | CCNC(=O)c1nc(C(=O)NCc2ccc(C)cc2)cs1
1050 | Cc1ccc(-c2nc(-c3ccnc(N4CCOCC4)c3)no2)cc1
704 | Cc1ccc(CNC(=O)c2cn3c(n2)COCC3)cc1C
799 | CCn1cc(S(=O)(=O)Nc2ccc(C)c(F)c2)c2cccnc21
878 | O=C(Nc1ccc(OCc2nnc(-c3ccccc3)o2)cc1)C1CCC1
950 | Cc1nn(-c2ccc(Cl)cc2)c(C)c1S(=O)(=O)N1CCC(C(=O)NCc2cccs2)CC1
574 | COc1cn(CC(=O)Nc2cccc(C)c2C)c(CN2CCCCCC2)cc1=O

RP-LC retention time [s] | Structure (SMILES)
648 | CCOC(=O)c1noc2nc(C)nc(NC3CCN(Cc4ccccc4)CC3)c12
1070 | CSc1ccc(-c2nc3cnccn3c2Nc2cc(C)cc(C)c2)cc1
1060 | COC(=O)c1ccc(NC(=O)CSc2nnc3c4cc(-c5ccccc5)nn4ccn23)cc1
670 | O=C(Cn1nc2n(c1=O)CCCC2)Nc1ccc(F)c(Cl)c1
778 | Cc1ccc(OCc2nc(-c3cccc(-c4ccn[nH]4)c3)no2)cc1
788 | COc1cccc(NC(=O)Cn2ccc3ccc(-c4nnc(C)o4)cc32)c1
655 | O=C(Nc1ccc2c(c1)OCCO2)C1CCN(C(=O)c2cc(-c3cccnc3)n[nH]2)CC1
694 | Cc1ccc(Nc2c(-c3ccccc3)nc3ccccn23)cc1
753 | O=C(Nc1c(F)cccc1F)N1CC(c2nc(Cc3ccccc3)no2)C1
1030 | COc1ccc(-c2cn3c(CC(=O)N4CCN(c5ccccn5)CC4)csc3n2)cc1OC
1040 | CCN1C(=O)COc2ccc(-c3noc(-c4ccc(OC)cc4OC)n3)cc21
607 | COc1cccc2cc(C(=O)Nc3ccc(-c4ccc(N5CCCC5)nn4)cc3)oc12
740 | Cc1ccccc1CNC(=O)C1CCN(Cc2cn(C)c3ccc(Cl)cc23)CC1
739 | Cc1ccc(S(=O)(=O)N2CCC3(CC2)NCCN=C3NCc2ccccc2)c(C)c1
715 | CCCC(NC(=O)c1cccc(C)c1)C(=O)Nc1nc2ccccc2[nH]1 (centres undefined)
694 | CC1(C(=O)Nc2cccc(F)c2)CCCCC(=O)N1 (centres undefined)
1020 | CCN(CC)c1nc2cc(C(=O)NCC3CC3)ccc2c(=O)n1Cc1ccccc1
751 | O=C(NCc1ccccc1Cl)C(=O)Nc1cccc(N2CCCCC2=O)c1
756 | COc1cccc(CNC(=O)C2CCCN(c3nnc4ccc(Cl)cn34)C2)c1 (centres undefined)
647 | CC(C)C(=O)Nc1ccc(-n2cnc(C(=O)NCC3CCCO3)c2)nc1 (centres undefined)
832 | CC1Oc2ccccc2OC1C(=O)NCc1ccsc1 (centres undefined)
961 | CCC(C)NC(=O)c1nnc(-c2ccc(S(=O)(=O)N3CCCCC3)cc2)o1 (centres undefined)
732 | O=C(Nc1cccc(F)c1)N1CCC(N2CCN(Cc3ccccc3)C(=O)C2=O)CC1
728 | CC1=C(c2ccccc2)S(=O)(=O)N=C1N1CCCN(C(=O)c2ccoc2)CC1
664 | Cc1ccc(-n2nnnc2CN2CCN(C(=O)CSc3nnnn3C)CC2)cc1
